Values of other authors as cited in article PMC11913096, “MBX 2109, A Once-Weekly Parathyroid Hormone Replacement Therapy Prodrug: Phase 1, First-In-Human, Randomized Trial” (The Journal of Clinical Endocrinology and Metabolism, 2024).
Where no end group is shown, it is not given here.

Tests used:
[1] = test system: patients with hypoPT; settings: once-daily, placebo 5%
Description: (§1) Because PTH deficiency is the etiology for chronic hypoPT, hormone replacement therapy with PTH would be the ideal treatment ([1], [2]). However, the short half-lives (t1/2) of unmodified PTH(1-34) and PTH(1-84) peptides necessitate frequent administration to normalize serum calcium levels ([2]). For example, twice-daily subcutaneous (SC) injection of teriparatide, a recombinant PTH(1-34) analogue with a short half-life (∼1 hour) ([2]), was more efficacious than once-daily administration in normalizing serum calcium and reducing hypercalciuria in patients with hypoPT ([9]). Continuous SC (pump ...

[2] = Description: as §1

Substance | Patients achieving composite primary end point (normalizing serum calcium and eliminating active vitamin D and calcium supplements) [1] [%] | Half-life [2] [h]
palopegteriparatide (SVSEIQLMHNLGKHLNSMERVEWLRKKLQDVHNF; also: methoxy-PEG carrier prodrug, attachment not given here; UniProt P01270 32-65, looked up, fragment) [prodrug of PTH(1-34) conjugated to a methoxypolyethylene glycol (PEG) carrier] | 79 | 
teriparatide |  | ~1
